Measurements taken from EP0216028A2, “Use of anthranilic-acid derivatives as anthelmintic medicaments” (HOECHST AKTIENGESELLSCHAFT, priority 1985, dated 1987).

Experiments:
[1] = system: Magen-Darm-Würmer(Ostertagia, Haemonchur, Trichostrongylus, Cooperia, jeweils verschiedene Spezies); test: Chemotherapeutic test in sheep infected with gastrointestinal worms (egg count reduction / worm burden); format: in vivo; details: Tabelle 2, Wirtstier: Schaf; for Chemotherapeut. Index / minimal effective dose: p.o.; for Chemotherapeut. Index: quotient of Dosis tolerata maxima and Dosis curativa minima; for minimal effective dose: Trichostrongylus, po, read-out: Dosis (>90% Reduktion der Wurmbürde)
Description: (§1) Zur Feststellung der anthelminthischen Wirkung der Verbindungen der Formel I wurden chemotherapeutische Untersuchungen an ca. 25-30 kg schweren Schaflämmern ausgeführt, die entweder mit Metazerkarien von Fasciola hepatica oder mit Larven von Magen-Darm-Strongyliden, vornehmlich Haemonchus contortus und Trichostongylus colubriformis, oral infiziert worden waren. Nach Ablauf der Präpatenzperiode (Zeit zwischen Infektion und Geschlechtsreife der Parasiten mit beginnender Ausscheidung von Eiern oder Larven) wurde der Parasitenbefall durch Kotuntersuchungen gesichert. […] Unmittelbar danach wurde die Behandlung der Schafe (im allgemeinen 3 - 4 Tiere pro Wirkstoff, mindestens aber 2) vorgenommen. Den Tieren wurde oral oder parenteral eine Suspension von unterschiedlicher Wirkstoffmenge in jeweils 10 ml einer 1%igen Carboxymethylcellulose-Suspension appliziert. Jeweils am 7., 14. und 28. Tag nach der Behandlung wurde wiederum nach den vorstehend angegebenen Verfahren die Eizahl pro Gramm Kot ermittelt und ihre prozentuale Abnahme im Vergleich zum Ausgangswert vor der Behandlung errechnet. Mit einigen Verbindungen wurden außerdem beim Fasciola-Befall noch eine zusätzliche Prüftechnik angewandt: Nach Abschluß der Präpatenzperiode wurde bei Fasciola-positiven Schafen ein künstlicher Gallengang geschaffen, der am Ausgang der Gallenblase ein Sieb enthielt, so daß die nach der Behandlung abgetöteten Leberegel in der Gallenblase aufgefangen werden konnten. Vier bis sieben Tage nach der Behandlung wurden die so operierten und dann behandelten Schafe getötet, die abgetöteten Leberegel in der Gallenblase sowie noch eventuell in der Leber vorhandene lebende Leberegel gezählt und von der gesamten Wurmbürde der Prozentsatz der abgetöteten Parasiten berechnet.
(§2) Der chemotherapeutische Index gibt den Quotienten aus Do- sis tolerata maxima und Dosis curativa minima an.

[2] = system: Leberegel (Fasciola hepatica); test: Chemotherapeutic test in sheep infected with liver fluke (egg count reduction / worm burden); format: in vivo; details: Tabelle 1, Wirtstier: Schaf, p.o.; for minimal effective dose: Fasciola hepatica, po, minimum curative dose, read-out: Dosis (>90% Reduktion der Wurmbürde); for Chemotherapeut. Index: quotient of Dosis tolerata maxima and Dosis curativa minima
Description: as §1, §2

| SMILES | Dosis (>90% Reduktion der Wurmbürde) ([1]; result in words, route not printed (oral bzw. subkutan)) | minimal effective dose [2] | Chemotherapeut. Index [2] | Chemotherapeut. Index [1] | minimal effective dose [1] |
| --- | --- | --- | --- | --- | --- |
| O=[N+]([O-])c1cc(Cl)cc(-c2cc(Cl)cc([N+](=O)[O-])c2O)c1O [Niclofolan, 5,5'-Dichlor-2-2'-dihydroxy-3,3'-dinitro-biphenyl, reference compound] | keine Wirkung | 3 mg/kg | 3 | – | – |
| O=C(Nc1ccc(Oc2ccc(Cl)cc2)c(Cl)c1)c1cc(I)cc(I)c1O [Rafoxanide, 3'-Chlor-4'-(p-chlor-phenoxy)-3,5-dijod-salicylanilid, reference compound] | – | 7.5 mg/kg | 6 | 6 | 7.5 mg/kg |
| O=C(Nc1ccc(Cl)cc1)c1cc(Cl)cc(Cl)c1NS(=O)(=O)c1ccc(Cl)cc1 [Verbindung 13, 3,5-Dichlor-2-[(4-chlor-phenylsulfonyl)-amino]-benzoesäure-(4-chlor-anilid)] | – | 5 mg/kg | 10 | 5 | 10 mg/kg |
| O=C(Nc1ccc(Cl)cc1)c1cc(Cl)ccc1NS(=O)(=O)c1ccc(Br)cc1 [Verbindung 20, 5-Chlor-2-[(4-brom-phenylsulfonyl)-amino]-benzoesäure-(4-chlor-anilid)] | – | 2.5 mg/kg | 20 | 5 | 10 mg/kg |
| O=C(Nc1ccc(OC(F)(F)F)cc1)c1cc(Cl)ccc1NS(=O)(=O)c1ccc(Cl)c(Cl)c1 [Verbindung 35, 5-Chlor-2-[(3,4-dichlorphenylsulfonyl)-amino]-benzoesäure-(4-trifluormethoxy-anilid)] | – | 2.5 mg/kg | 20 | 5 | 10 mg/kg |
| O=C(Nc1ccc(Cl)cc1)c1cc([N+](=O)[O-])ccc1NS(=O)(=O)c1ccc(Cl)c(Cl)c1 [Verbindung 38, 2-[(3,4-Dichlor-phenylsulfönyl)-amino]-5-nitrobenzoesäure-(4-chlor-anilid)] | – | – | – | 6 | 7.5 mg/kg |
| CCN(C(=O)c1cc(Cl)ccc1N(C)S(=O)(=O)c1ccc(Cl)c(Cl)c1)c1ccc(Cl)cc1 [Verbindung 42] | – | 2.5 mg/kg | 20 | 10 | 5 mg/kg |
